# According to ChEMBL document CHEMBL4842346, “Improving the metabolic stability of antifungal compounds based on a scaffold hopping strategy: Design, synthesis, and structure-activity relationship studies of dihydrooxazole derivatives” (Eur J Med Chem, 2021):
# What was measured:
# [1] = test system: Pichia kudriavzevii; test: Antifungal activity against Candida krusei GIM2.1 assessed as inhibition of fungal growth by NCCLS protocol based method; type: functional
# [2] = target: T1, Cytochrome P450 1A2 (Homo sapiens, UniProt P05177); test: Inhibition of CYP1A2 in human liver microsome incubated for 10 mins in the presence of NADPH by LC-MS/MS analysis; type: ADME, microsomes
# T1 sequence (P05177 whole entry): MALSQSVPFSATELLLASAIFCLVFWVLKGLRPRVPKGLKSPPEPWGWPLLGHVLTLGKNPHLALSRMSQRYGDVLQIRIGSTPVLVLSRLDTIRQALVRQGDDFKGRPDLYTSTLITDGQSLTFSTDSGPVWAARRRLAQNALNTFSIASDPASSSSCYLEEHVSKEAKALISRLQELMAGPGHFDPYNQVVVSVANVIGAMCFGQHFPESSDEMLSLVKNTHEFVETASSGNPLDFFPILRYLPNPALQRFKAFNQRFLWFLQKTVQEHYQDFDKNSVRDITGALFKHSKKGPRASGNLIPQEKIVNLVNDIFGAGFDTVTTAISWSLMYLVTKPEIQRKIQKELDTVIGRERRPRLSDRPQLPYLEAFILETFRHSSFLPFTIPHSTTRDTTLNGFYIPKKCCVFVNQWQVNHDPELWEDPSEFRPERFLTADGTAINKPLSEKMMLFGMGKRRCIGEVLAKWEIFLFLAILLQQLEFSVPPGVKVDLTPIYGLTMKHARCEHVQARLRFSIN
# [3] = target: T2, Lanosterol 14-alpha demethylase (Candida albicans (strain SC5314 / ATCC MYA-2876) (Yeast), UniProt P10613); test: Inhibition of Candida albicans CYP51 assessed as eburicol level at 0.015 ug/ml measured after 18 hrs by GC-MS analysis relative to control; parameters: scale not given: the % may be the effect or the level left; details: at 0.015 µg/mL
# [4] = test system: Candida parapsilosis; test: Antifungal activity against Candida parapsilosis GIM2.190 assessed as inhibition of fungal growth by NCCLS protocol based method; type: functional; details: Lodderomyces parapsilosis
# [5] = Metabolic stability in human plasma assessed as parent compound remaining at 100 uM measured after 120 mins by LC-MS/MS analysis; type: ADME, cell-free; details: 2 h
# [6] = Clearance in Sprague-Dawley rat at 2 mg/kg, iv measured after 24 hrs by LC-MS/MS analysis; type: ADME, organism-based; details: in vivo
# [7] = Metabolic stability in human liver microsomes assessed as compound remaining at 100 uM measured after 60 mins in the presence of NADPH by LC-MS/MS analysis; type: ADME, Microsome; details: read-out: Stabilty
# [8] = Intrinsic microsomal clearance in human liver microsomes at 100 uM in the presence of NADPH measured up to 60 mins by LC-MS/MS analysis; type: ADME, Microsome; details: read-out: CLH
# [9] = target: Cytochrome P450 2C9 (Homo sapiens, UniProt P11712); test: Inhibition of CYP2C9 in human liver microsome incubated for 10 mins in the presence of NADPH by LC-MS/MS analysis; type: ADME, microsomes
# [10] = Half life in Sprague-Dawley rat at 2 mg/kg, iv measured up to 24 hrs by LC-MS/MS analysis; type: ADME, organism-based; details: in vivo
# [11] = test system: Candida albicans; test: Antifungal activity against Candida albicans SC5314 assessed as inhibition of fungal growth by NCCLS protocol based method; type: functional
# [12] = test system: Candida tropicalis; test: Antifungal activity against Candida tropicalis GIM2.183 assessed as inhibition of fungal growth by NCCLS protocol based method; type: functional
# [13] = Oral bioavailability in Sprague-Dawley rat at 10 mg/kg measured after 24 hrs by LC-MS/MS analysis; type: ADME, organism-based; details: in vivo
# [14] = Cmax in Sprague-Dawley rat at 10 mg/kg, po measured up to 24 hrs by LC-MS/MS analysis; type: ADME, organism-based; parameters: route oral, dose 10 mg/kg, time <=24; details: in vivo
# [15] = target: Cytochrome P450 2D6 (Homo sapiens, UniProt P10635); test: Inhibition of CYP2D6 in human liver microsome incubated for 10 mins in the presence of NADPH by LC-MS/MS analysis; type: ADME, microsomes
# [16] = test system: Candida albicans; test: Antifungal activity against fluconazole resistant Candida albicans CaR assessed as inhibition of fungal growth by NCCLS protocol based method; type: functional
# [17] = Initial plasma concentration in Sprague-Dawley rat at 2 mg/kg, iv by LC-MS/MS analysis; type: ADME, organism-based
# [18] = Metabolic stability in human liver microsomes assessed as compound remaining at 100 uM measured after 60 mins in the absence of NADPH by LC-MS/MS analysis; type: ADME, Microsome; details: read-out: Stabilty
# [19] = Tmax in Sprague-Dawley rat at 10 mg/kg, po measured up to 24 hrs by LC-MS/MS analysis; type: ADME, organism-based; details: in vivo
# [20] = Metabolic stability in human plasma assessed as half life at 100 uM measured after 60 mins by LC-MS/MS analysis; type: ADME, cell-free
# [21] = target: T2, Lanosterol 14-alpha demethylase; test: Inhibition of Candida albicans CYP51 assessed as lanosterol level at 0.015 ug/ml measured after 18 hrs by GC-MS analysis relative to control; parameters: scale not given: the % may be the effect or the level left; details: at 0.015 µg/mL
# [22] = target: T2, Lanosterol 14-alpha demethylase; test: Inhibition of Candida albicans CYP51 assessed as unknown sterol level at 0.015 ug/ml measured after 18 hrs by GC-MS analysis relative to control; parameters: scale not given: the % may be the effect or the level left; details: at 0.015 µg/mL
# [23] = test system: Candida albicans; test: Antifungal activity against fluconazole and itraconazole resistant Candida albicans 17# assessed as inhibition of fungal growth by NCCLS protocol based method; type: functional
# [24] = Metabolic stability in human plasma assessed as parent compound remaining at 100 uM measured after 60 mins by LC-MS/MS analysis; type: ADME, cell-free; details: read-out: Stabilty
# [25] = test system: Aspergillus fumigatus; test: Antifungal activity against Aspergillus fumigatus CGMCC3.7795 assessed as inhibition of fungal growth by NCCLS protocol based method; type: functional
# [26] = Metabolic stability in human liver microsomes assessed as half life at 100 uM in the presence of NADPH measured upto 60 mins by LC-MS/MS analysis; type: ADME, Microsome
# [27] = target: Cytochrome P450 3A4 (Homo sapiens, UniProt P08684); test: Inhibition of CYP3A4 in human liver microsome incubated for 10 mins in the presence of NADPH by LC-MS/MS analysis; type: ADME, microsomes
# [28] = target: T2, Lanosterol 14-alpha demethylase; test: Inhibition of Candida albicans CYP51 assessed as ergosterol level at 0.015 ug/ml measured after 18 hrs by GC-MS analysis relative to control; parameters: scale not given: the % may be the effect or the level left; details: at 0.015 µg/mL
# [29] = AUClast in Sprague-Dawley rat at 10 mg/kg, po measured after 24 hrs by LC-MS/MS analysis; type: ADME, organism-based; parameters: route oral, time 24 hrs, dose 10 mg/kg; details: in vivo
# [30] = target: Cytochrome P450 2C19 (Homo sapiens, UniProt P33261); test: Inhibition of CYP2C19 in human liver microsome incubated for 10 mins in the presence of NADPH by LC-MS/MS analysis; type: ADME, microsomes
# [31] = target: T2, Lanosterol 14-alpha demethylase; test: Inhibition of Candida albicans CYP51 assessed as 14alpha-methylergosta-8,24(28)-dien3beta-6alpha-diol level at 0.015 ug/ml measured after 18 hrs by GC-MS analysis relative to control; parameters: scale not given: the % may be the effect or the level left; details: at 0.015 µg/mL
# [32] = AUClast in Sprague-Dawley rat at 2 mg/kg, iv measured after 24 hrs by LC-MS/MS analysis; type: ADME, organism-based; parameters: route intravenous, dose 2 mg/kg, time 24 hrs; details: in vivo
# [33] = AUC (0-infinity) in Sprague-Dawley rat at 2 mg/kg, iv measured after 24 hrs by LC-MS/MS analysis; type: ADME, organism-based; parameters: route intravenous, dose 2 mg/kg, time 24 hrs; details: in vivo
# [34] = test system: Candida albicans; test: Antifungal activity against Candida albicans GIM2.194 assessed as inhibition of fungal growth by NCCLS protocol based method; type: functional
# [35] = Volume of distribution at steady state in Sprague-Dawley rat at 2 mg/kg, iv measured after 24 hrs by LC-MS/MS analysis; type: ADME, organism-based; details: in vivo, read-out: Vdss
# [36] = Intrinsic hepatic clearance in human liver microsomes at 100 uM in the presence of NADPH measured up to 60 mins by LC-MS/MS analysis; type: ADME, Microsome; details: 1 h
# [37] = target: T2, Lanosterol 14-alpha demethylase; test: Inhibition of Candida albicans CYP51 assessed as lanosterol level at 0.25 ug/ml measured after 18 hrs by GC-MS analysis relative to control; parameters: scale not given: the % may be the effect or the level left; details: at 0.25 µg/mL
# [38] = target: T2, Lanosterol 14-alpha demethylase; test: Inhibition of Candida albicans CYP51 assessed as eburicol level at 0.25 ug/ml measured after 18 hrs by GC-MS analysis relative to control; parameters: scale not given: the % may be the effect or the level left; details: at 0.25 µg/mL
# [39] = target: T2, Lanosterol 14-alpha demethylase; test: Inhibition of Candida albicans CYP51 assessed as 14alpha-methylergosta-8,24(28)-dien3beta-6alpha-diol level at 0.25 ug/ml measured after 18 hrs by GC-MS analysis relative to control; parameters: scale not given: the % may be the effect or the level left; details: at 0.25 µg/mL
# [40] = test system: Cryptococcus neoformans; test: Antifungal activity against Cryptococcus neoformans CGMCC2.3161 assessed as inhibition of fungal growth by NCCLS protocol based method; type: functional
# [41] = test system: Cryptococcus neoformans; test: Antifungal activity against Cryptococcus neoformans GIM2.209 assessed as inhibition of fungal growth by NCCLS protocol based method; type: functional
# [42] = target: T2, Lanosterol 14-alpha demethylase; test: Inhibition of Candida albicans CYP51 assessed as ergosterol level at 0.25 ug/ml measured after 18 hrs by GC-MS analysis relative to control; parameters: scale not given: the % may be the effect or the level left; details: at 0.25 µg/mL
# [43] = test system: Candida albicans; test: Antifungal activity against Candida albicans CPCC400523 assessed as inhibition of fungal growth by NCCLS protocol based method; type: functional
# [44] = target: T2, Lanosterol 14-alpha demethylase; test: Inhibition of Candida albicans CYP51 assessed as unknown sterol level at 0.25 ug/ml measured after 18 hrs by GC-MS analysis relative to control; parameters: scale not given: the % may be the effect or the level left; details: at 0.25 µg/mL
# T2 sequence (P10613 whole entry): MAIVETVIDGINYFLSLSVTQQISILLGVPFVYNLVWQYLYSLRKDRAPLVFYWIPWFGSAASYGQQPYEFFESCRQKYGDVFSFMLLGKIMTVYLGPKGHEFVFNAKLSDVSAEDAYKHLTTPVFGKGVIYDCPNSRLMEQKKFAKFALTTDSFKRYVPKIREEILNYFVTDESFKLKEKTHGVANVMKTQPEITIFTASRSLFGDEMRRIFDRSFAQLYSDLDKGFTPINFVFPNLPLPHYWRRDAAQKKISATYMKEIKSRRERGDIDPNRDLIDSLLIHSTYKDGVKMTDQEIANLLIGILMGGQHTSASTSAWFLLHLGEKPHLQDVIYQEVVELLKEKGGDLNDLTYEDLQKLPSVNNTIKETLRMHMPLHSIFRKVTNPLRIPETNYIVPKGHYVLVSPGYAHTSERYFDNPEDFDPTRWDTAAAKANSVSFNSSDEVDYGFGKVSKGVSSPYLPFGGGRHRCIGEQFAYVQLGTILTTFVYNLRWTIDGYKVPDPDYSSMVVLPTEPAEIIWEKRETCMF
# Chain of Cytochrome P450 2C19 (P33261 whole entry): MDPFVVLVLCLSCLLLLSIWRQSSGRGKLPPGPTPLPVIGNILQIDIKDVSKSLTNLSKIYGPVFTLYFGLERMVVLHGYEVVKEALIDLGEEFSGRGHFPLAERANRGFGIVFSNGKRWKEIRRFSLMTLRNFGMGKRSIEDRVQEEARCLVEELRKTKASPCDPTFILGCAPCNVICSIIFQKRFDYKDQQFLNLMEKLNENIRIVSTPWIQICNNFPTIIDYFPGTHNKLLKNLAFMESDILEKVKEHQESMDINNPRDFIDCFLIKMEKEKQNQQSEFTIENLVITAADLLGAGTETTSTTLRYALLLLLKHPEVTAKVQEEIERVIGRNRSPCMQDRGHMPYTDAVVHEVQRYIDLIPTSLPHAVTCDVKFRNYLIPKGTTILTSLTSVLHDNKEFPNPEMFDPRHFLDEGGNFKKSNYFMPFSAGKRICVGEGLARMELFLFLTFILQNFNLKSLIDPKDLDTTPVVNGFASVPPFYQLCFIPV
# Chain of Cytochrome P450 2D6 (P10635 whole entry): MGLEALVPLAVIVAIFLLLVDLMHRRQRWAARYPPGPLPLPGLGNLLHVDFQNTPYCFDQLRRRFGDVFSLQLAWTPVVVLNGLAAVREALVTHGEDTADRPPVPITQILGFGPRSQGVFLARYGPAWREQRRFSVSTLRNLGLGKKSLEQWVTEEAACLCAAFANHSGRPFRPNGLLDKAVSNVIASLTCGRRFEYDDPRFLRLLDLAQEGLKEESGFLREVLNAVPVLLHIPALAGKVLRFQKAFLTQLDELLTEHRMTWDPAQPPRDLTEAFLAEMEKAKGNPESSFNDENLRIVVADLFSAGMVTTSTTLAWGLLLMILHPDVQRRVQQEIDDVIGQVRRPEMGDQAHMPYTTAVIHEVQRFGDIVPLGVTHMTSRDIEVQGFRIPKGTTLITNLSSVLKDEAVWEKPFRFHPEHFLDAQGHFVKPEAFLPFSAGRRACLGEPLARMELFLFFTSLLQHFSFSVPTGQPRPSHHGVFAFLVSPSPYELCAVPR
# Chain of Cytochrome P450 2C9 (P11712 whole entry): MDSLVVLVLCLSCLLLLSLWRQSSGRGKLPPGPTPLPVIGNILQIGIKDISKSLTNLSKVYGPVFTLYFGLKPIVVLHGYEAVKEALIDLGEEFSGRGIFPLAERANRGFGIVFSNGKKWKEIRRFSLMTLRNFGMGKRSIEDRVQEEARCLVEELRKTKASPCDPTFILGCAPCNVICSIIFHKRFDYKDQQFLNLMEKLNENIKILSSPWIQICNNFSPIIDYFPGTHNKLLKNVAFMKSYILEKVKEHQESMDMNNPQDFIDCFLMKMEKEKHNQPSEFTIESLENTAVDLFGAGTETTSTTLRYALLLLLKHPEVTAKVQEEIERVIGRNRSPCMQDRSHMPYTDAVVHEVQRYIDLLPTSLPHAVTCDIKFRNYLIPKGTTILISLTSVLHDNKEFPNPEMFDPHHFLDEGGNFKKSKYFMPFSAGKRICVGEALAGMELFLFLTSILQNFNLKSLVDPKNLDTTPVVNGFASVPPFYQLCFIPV
# Chain of Cytochrome P450 3A4 (P08684 whole entry): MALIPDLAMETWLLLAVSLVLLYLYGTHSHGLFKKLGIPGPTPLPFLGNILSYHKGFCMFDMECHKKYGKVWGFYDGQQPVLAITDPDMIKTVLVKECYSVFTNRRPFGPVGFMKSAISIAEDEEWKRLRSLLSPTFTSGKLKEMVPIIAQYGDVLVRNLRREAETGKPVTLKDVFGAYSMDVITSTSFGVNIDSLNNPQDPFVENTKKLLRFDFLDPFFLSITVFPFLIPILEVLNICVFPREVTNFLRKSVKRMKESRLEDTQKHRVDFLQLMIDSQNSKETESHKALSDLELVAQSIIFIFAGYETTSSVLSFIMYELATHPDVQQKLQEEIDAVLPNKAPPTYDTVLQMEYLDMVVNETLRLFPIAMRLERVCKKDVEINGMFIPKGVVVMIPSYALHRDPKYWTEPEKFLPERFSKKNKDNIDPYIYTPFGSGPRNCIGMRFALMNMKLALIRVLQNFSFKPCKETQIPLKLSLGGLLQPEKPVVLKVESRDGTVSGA
Structure (SMILES),MIC [1] [µg/mL],IC50 [2] [µM],Activity [3] [%],MIC [4] [µg/mL],Stabilty [5] [%],"remaining at 1 h, 100 µM [7] [%]",microsomal CLint at 100 µM [8] [µL/min/mg],IC50 [9] [µM],MIC [11] [µg/mL],MIC [12] [µg/mL],IC50 [15] [µM],MIC [16] [µg/mL],"remaining at 1 h, 100 µM [18] [%]",half-life at 100 µM [20] [h],Activity [21] [%],Activity [22] [%],MIC [23] [µg/mL],"remaining at 1 h, 100 µM [24] [%]",MIC [25] [µg/mL],MIC [34] [µg/mL],also measured
Fc1ccc(C2(Cn3cncn3)COC(c3ccc(-c4ccccc4F)cc3)=N2)cc1 (configuration not stated),0.25,6.64,5.08,8,120.4,75.4,< 9.6,2.3,< 0.03,0.06,> 50,0.25,89.6,> 4.8,18.89,1.97,> 64,95.3,> 64,< 0.03,clearance [6]: 10.8 mL/min/kg; half-life [10]: 9.35 h; bioavailability [13]: 77.7%; Cmax [14]: 754 ng/mL; C0 [17]: 758 ng/mL; Tmax [19]: 5.33 h; half-life at 100 µM [26]: > 2.42 h; IC50 [27]: 14.8 µM; Activity [28]: 38.82%; AUC(0-t) at 24 h [29]: 10400 ng·h/mL; IC50 [30]: 1.56 µM; Activity [31]: 32.74%; AUC(0-t) at 24 h [32]: 2690 ng·h/mL; AUC(0-inf) [33]: 3130 ng·h/mL; Vd [35]: 7.18 L/kg
Fc1ccc(C2(Cn3cncn3)COC(c3ccc(-c4cccc(F)c4)cc3)=N2)cc1 (configuration not stated),0.25,21.2,7.04,8,115.8,47.1,23.5,3.8,< 0.03,0.06,40.1,0.5,79.9,> 4.8,18.96,1.73,> 64,98.7,> 64,< 0.03,half-life at 100 µM [26]: 0.985 h; IC50 [27]: 15.2 µM; Activity [28]: 35.8%; CLH [36]: 0.0211 mL/min/kg; IC50 [30]: 1.3 µM; Activity [31]: 34.14%
OC(Cn1cncn1)(Cn1cncn1)c1ccc(F)cc1F [FLUCONAZOLE],8,–,–,2,–,–,–,–,0.5,1,–,> 64,–,–,–,–,> 64,–,> 64,1,Activity [37]: 15.13%; Activity [38]: 7.57%; Activity [39]: 30.66%; MIC [40]: 4 µg/mL; MIC [41]: 4 µg/mL; Activity [42]: 34.27%; MIC [43]: 1 µg/mL; Activity [44]: 1.91%
